# Source: patent publication US20100298141A1, “SUBSTITUTED PYRIDINE N-OXIDE HERBICIDES” (E. I. DU PONT DE NEMOURS AND COMPANY, priority 2007, published 2010)
# Key:
# [1] = tested on: broadleaf signalgrass; experiment: Test F preemergence test; assay type: in vivo, Brachiaria platyphylla; conditions: scale 0 to 100
# How it was run: (§1)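 Compounds in a non-phytotoxic solvent formulation with surfactant were applied before emergence after sowing, or, for sugarcane, also postemergence. Evaluation was visual, against controls, after 14 to 21 greenhouse days.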
# [2] = tested on: mustard; experiment: Test F preemergence test; assay type: in vivo, Brassica nigra; conditions: scale 0 to 100
# How it was run: as §1
# [3] = tested on: common ragweed; experiment: Test C pre-/postemergence test; assay type: in vivo, Ambrosia elation; conditions: for Plant response rating, Ragweed: scale 0 to 100, 0 no effect, 100 complete control
# How it was run: (§2)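 Seeds were planted and treated preemergence with test chemical in a non-phytotoxic solvent mixture containing surfactant. Postemergence applications of the same formulation went onto plants 2 to 18 cm tall (1- to 4-leaf stage). A dash marks no test result.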
# [4] = tested on: prickly sida; experiment: Test F preemergence test; assay type: in vivo, Sida spinosa; conditions: scale 0 to 100
# How it was run: as §1
# [5] = tested on: Virginia dayflower; experiment: Test F preemergence test; assay type: in vivo, Commelina virginica; conditions: Preemergence, scale 0 to 100
# How it was run: as §1
# [6] = tested on: kochia; experiment: Test F preemergence test; assay type: in vivo, Kochia scoparia; conditions: scale 0 to 100
# How it was run: as §1
# [7] = tested on: bermudagrass; experiment: Test F preemergence test; assay type: in vivo, Cynodon dactylon; conditions: scale 0 to 100
# How it was run: as §1
# [8] = tested on: Surinam grass; experiment: Test F preemergence test; assay type: in vivo, Brachiaria decumbens; conditions: scale 0 to 100
# How it was run: as §1
# [9] = tested on: blackgrass; experiment: Test C pre-/postemergence test; assay type: in vivo, Alopecurus myosuroides; conditions: for Plant response rating, Blackgrass: scale 0 to 100, 0 no effect, 100 complete control
# How it was run: as §2
# [10] = tested on: dallisgrass; experiment: Test F preemergence test; assay type: in vivo, Paspalum dilatatum; conditions: scale 0 to 100
# How it was run: as §1
# [11] = tested on: green foxtail; experiment: Test C pre-/postemergence test; assay type: in vivo, Setaria viridis; conditions: for Plant response rating, Foxtail, Green: scale 0 to 100, 0 no effect, 100 complete control
# How it was run: as §2
# [12] = tested on: quackgrass; experiment: Test F preemergence test; assay type: in vivo, Elytrigia repens; conditions: scale 0 to 100
# How it was run: as §1
# [13] = tested on: corn; experiment: Test A pre-/postemergence greenhouse test; assay type: in vivo, Zea mays; conditions: for Corn plant response rating: 0 to 100 scale
# How it was run: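 Test compounds in non-phytotoxic solvent with surfactant were applied as a preemergence soil spray to seeded loam/sand pots and, concurrently, postemergence to plants at 2–10 cm, one- to two-leaf stage. About ten days in greenhouse, then injury visually rated against untreated controls.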
# [14] = tested on: common mallow; experiment: Test F preemergence test; assay type: in vivo, Malva sylvestris; conditions: Preemergence, scale 0 to 100
# How it was run: as §1
# [15] = 31 g ai/ha, Preemergence, scale 0 to 100
# [16] = 62 g ai/ha, preemergence, scale 0 (no effect) to 100 (complete control)
# [17] = preemergence, 125 g ai/ha, scale 0 (no effect) to 100 (complete control)
smiles,measurement,setting,value
CC(c1c(C(F)(F)F)nn(C)c1OC(F)F)S(=O)(=O)c1cccc[n+]1[O-] (stereo not shown) [Compound 5],"Plant response rating, Signalgrass","[1]; 8 g ai/ha, preemergence",0
same,"Plant response rating, Signalgrass","[1]; 16 g ai/ha, preemergence",30
same,Signalgrass plant response rating,"[1]; 62 g ai/ha, Preemergence",75
same,"Plant response rating, Signalgrass","[1]; Preemergence, 31 g ai/ha",35
same,"Plant response rating, Black Mustard","[2]; 8 g ai/ha, preemergence",0
same,Black Mustard plant response rating,"[2]; 62 g ai/ha, Preemergence",85
same,"Plant response rating, Black Mustard","[2]; Preemergence, 16 g ai/ha",35
same,"Plant response rating, Black Mustard","[2]; Preemergence, 31 g ai/ha",75
same,Ragweed plant response rating,[3]; [15],85
same,Ragweed plant response rating,[3]; [16],85
same,"Plant response rating (0 to 100), Ragweed","[3]; Postemergence, 31 g ai/ha",0
same,"Plant response rating (0 to 100), Ragweed","[3]; Postemergence, 62 g ai/ha",5
same,"Plant response rating, Ragweed","[3]; Postemergence, 125 g ai/ha",5
same,"Plant response rating, Ragweed","[3]; Postemergence, 250 g ai/ha",55
same,"Plant response rating (0 to 100), Ragweed","[3]; Preemergence, 250 g ai/ha",100
same,Ragweed plant response rating,[3]; [17],100
same,"Plant response rating, Prickly Sida","[4]; 8 g ai/ha, preemergence",0
same,Prickly Sida plant response rating,"[4]; 62 g ai/ha, Preemergence",100
same,"Plant response rating, Prickly Sida","[4]; Preemergence, 16 g ai/ha",50
same,"Plant response rating, Prickly Sida","[4]; Preemergence, 31 g ai/ha",100
same,Dayflower plant response rating,[5]; 62 g ai/ha,100
same,"Plant response rating, Dayflower",[5]; 16 g ai/ha,65
same,"Plant response rating, Dayflower",[5]; 31 g ai/ha,90
same,"Plant response rating, Kochia","[6]; 8 g ai/ha, preemergence",0
same,Kochia plant response rating,"[6]; 62 g ai/ha, Preemergence",40
same,"Plant response rating, Kochia","[6]; Preemergence, 16 g ai/ha",0
same,"Plant response rating, Kochia","[6]; Preemergence, 31 g ai/ha",0
same,"Plant response rating, Bermudagrass","[7]; 8 g ai/ha, preemergence",25
same,Bermudagrass plant response rating,"[7]; 62 g ai/ha, Preemergence",100
same,"Plant response rating, Bermudagrass","[7]; Preemergence, 16 g ai/ha",50
same,"Plant response rating, Bermudagrass","[7]; Preemergence, 31 g ai/ha",100
same,"Plant response rating, Surinam Grass","[8]; 8 g ai/ha, preemergence",0
same,"Plant response rating, Surinam Grass","[8]; 16 g ai/ha, preemergence",80
same,Surinam Grass plant response rating,"[8]; 62 g ai/ha, Preemergence",100
same,"Plant response rating, Surinam Grass","[8]; Preemergence, 31 g ai/ha",90
same,Blackgrass plant response rating,[9]; [15],80
same,Blackgrass plant response rating,[9]; [16],100
same,"Plant response rating (0 to 100), Blackgrass","[9]; Postemergence, 31 g ai/ha",0
same,"Plant response rating, Blackgrass","[9]; Postemergence, 62 g ai/ha",0
same,"Plant response rating, Blackgrass","[9]; Postemergence, 250 g ai/ha",40
same,"Plant response rating (0 to 100), Blackgrass","[9]; Preemergence, 250 g ai/ha",100
same,Blackgrass plant response rating,[9]; [17],100
same,"Plant response rating, Dallisgrass","[10]; 8 g ai/ha, preemergence",0
same,Dallisgrass plant response rating,"[10]; 62 g ai/ha, Preemergence",98
same,"Plant response rating, Dallisgrass","[10]; Preemergence, 16 g ai/ha",65
same,"Plant response rating, Dallisgrass","[10]; Preemergence, 31 g ai/ha",75
same,"Foxtail, Green plant response rating",[11]; [15],100
same,"Foxtail, Green plant response rating",[11]; [16],100
same,"Plant response rating (0 to 100), Foxtail, Green","[11]; Postemergence, 31 g ai/ha",0
same,"Plant response rating, Foxtail, Green","[11]; Postemergence, 62 g ai/ha",0
same,"Plant response rating, Foxtail, Green","[11]; Postemergence, 125 g ai/ha",60
same,"Plant response rating, Foxtail, Green","[11]; Postemergence, 250 g ai/ha",65
same,"Plant response rating (0 to 100), Foxtail, Green","[11]; Preemergence, 250 g ai/ha",100
same,"Foxtail, Green plant response rating",[11]; [17],100
same,"Plant response rating, Quackgrass","[12]; 8 g ai/ha, preemergence",10
same,Quackgrass plant response rating,"[12]; 62 g ai/ha, Preemergence",85
same,"Plant response rating, Quackgrass","[12]; Preemergence, 16 g ai/ha",50
same,"Plant response rating, Quackgrass","[12]; Preemergence, 31 g ai/ha",70
same,Corn plant response rating,"[13]; Postemergence, 125 g ai/ha, 0 is no effect, 100 is complete control",30
same,Corn plant response rating,"[13]; Postemergence, 500 g ai/ha, 0 is no effect, 100 is complete control",70
same,Corn plant response rating,"[13]; Preemergence, 125 g ai/ha, 0 no effect, 100 complete control",20
same,"Plant response rating, Corn","[13]; Preemergence, 500 g ai/ha, 0 to 100 scale where 0 is no effect and 100 is complete control",80
same,Mallow plant response rating,[14]; 62 g ai/ha,90
same,"Plant response rating, Mallow",[14]; 16 g ai/ha,25
